This assay addresses pim-1 kinase (Homo sapiens, UniProt P11309). In words: Measurement of pim-1 kinase inhibitory activity (fluorescent substrate peptide, capillary electrophoresis). It is filed as biochemical. The conditions noted are these: 0.1 μM of each compound, 30 μM ATP, 1.5 μM substrate peptide, room temperature 2 hours. The method, then: Measurement of Pim-1 Kinase Inhibitory Activity
The result of the reaction was determined by quantifying the substrate and the phosphorylated reaction product separated by capillary electrophoresis based on difference in charges of the substances (EZ Reader II, Caliper Life Sciences, was used).

Structures can show the parent of a compound that is named as a salt.

Chain of pim-1 kinase (P11309 whole entry): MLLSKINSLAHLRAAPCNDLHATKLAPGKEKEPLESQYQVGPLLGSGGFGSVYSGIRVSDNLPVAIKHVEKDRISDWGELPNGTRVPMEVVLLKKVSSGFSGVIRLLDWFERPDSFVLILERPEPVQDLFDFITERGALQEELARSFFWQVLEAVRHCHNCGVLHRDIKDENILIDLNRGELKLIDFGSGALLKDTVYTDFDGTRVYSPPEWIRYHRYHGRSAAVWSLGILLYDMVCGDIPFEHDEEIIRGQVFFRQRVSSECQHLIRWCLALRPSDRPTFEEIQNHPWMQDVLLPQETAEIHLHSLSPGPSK

As for `CN(C)CCCN1CCN(Cc2c(O)ccc3c2O/C(=C\c2c[nH]c4ccccc24)C3=O)CC1` [Compound A1, (Z)-2-[(1H-Indol-3-yl)methylene]-7-({4-[3-(dimethylamino)propyl]piperazin-1-yl}methyl)-6-hydroxybenzofuran-3(2H)-one], the inhibition at 0.1 µM (Table 1) came to 51%.
In the case of `O=C1/C(=C/c2c[nH]c3ccccc23)Oc2c1ccc(O)c2CN1CCSCC1` [Compound A4, (Z)-2-[(1H-Indol-3-yl)methylene]-6-hydroxy-7-(thiomorpholinomethyl)benzofuran-3(2H)-one], under “Table 1”, the inhibition at 0.1 µM was found to be 19%.
On the same count and under the same terms, under `O=C1/C(=C/c2c[nH]c3ccccc23)Oc2c1ccc(O)c2CN1CCC(O)CC1` [Compound A6, (Z)-2-[(1H-Indol-3-yl)methylene]-6-hydroxy-7-[(4-hydroxypiperidin-1-yl)methyl]benzofuran-3(2H)-one] stands 15%.
The same measure, in the same setting: under `CN(C)CCCN(C)Cc1c(O)ccc2c1O/C(=C\c1c[nH]c3ccccc13)C2=O` [Compound A8, (Z)-2-[(1H-Indol-3-yl)methylene]-7-({[3-(dimethylamino)propyl](methyl)amino}methyl)-6-hydroxybenzofuran-3(2H)-one] stands 20%.
On the same count and under the same terms, the figure for `O=C1/C(=C/c2c[nH]c3ccccc23)Oc2c1cc(-c1ccccc1)c(O)c2CN1CCNCC1` [Compound A13, (Z)-2-[(1H-Indol-3-yl)methylene]-6-hydroxy-5-phenyl-7-(piperazin-1-ylmethyl)benzofuran-3(2H)-one dihydrochloride] is 71%; for `COc1cc(CN2CCNCC2)c2c(c1)C(=O)/C(=C/c1c[nH]c3ccccc13)O2` [Compound A14, (Z)-2-[(1H-Indol-3-yl)methylene]-5-methoxy-7-(piperazin-1-ylmethyl)benzofuran-3(2H)-one dihydrochloride] it is 87%; for `O=C1/C(=C/c2c[nH]c3ccc(OCCN4CCOCC4)cc23)Oc2c1ccc(O)c2CN1CCNCC1` [Compound A19, (Z)-6-Hydroxy-2-{[5-(2-morpholinoethoxy)-1H-indol-3-yl]methylene}-7-(piperazin-1-ylmethyl)benzofuran-3(2H)-one dihydrochloride trihydrochloride] it is 62%.
`CC(=O)NCc1ccc2[nH]cc(/C=C3\Oc4c(ccc(O)c4CN4CCNCC4)C3=O)c2c1` [Compound A20, (Z)—N-[(3-{[6-Hydroxy-3-oxo-7-(piperazin-1-ylmethyl)benzofuran-2(3H)-ylidene]methyl}-1H-indol-5-yl)methyl]acetamide dihydrochloride]: the inhibition at 0.1 µM (Table 1) stood at 62%.
For `O=C1/C(=C/c2c[nH]c3ccc(Cl)cc23)Oc2c1ccc(O)c2CN1CCNCC1` [Compound A21, (Z)-2-[(5-Chloro-1H-indol-3-yl)methylene]-6-hydroxy-7-(piperazin-1-ylmethyl)benzofuran-3(2H)-one dihydrochloride], under “Table 1”, the inhibition at 0.1 µM was found to be 94%.
Take `COC(=O)c1ccc2c(/C=C3\Oc4c(ccc(O)c4CN4CCNCC4)C3=O)c[nH]c2c1` [Compound A23, Methyl (Z)-3-{[6-hydroxy-3-oxo-7-(piperazin-1-ylmethyl)benzofuran-2(3H)-ylidene]methyl}-1H-indole-6-carboxylate]: the inhibition at 0.1 µM (Table 1) turned out to be 56%.
Same read-out and setting: under `O=C1/C(=C/c2c[nH]c3cc([N+](=O)[O-])ccc23)Oc2c1ccc(O)c2CN1CCNCC1` [Compound A24, (Z)-6-Hydroxy-2-[(6-nitro-1H-indol-3-yl)methylene]-7-(piperazin-1-ylmethyl)benzofuran-3(2H)-one dihydrochloride] stands 60%; under `O=C1/C(=C/c2c[nH]c3c([N+](=O)[O-])cccc23)Oc2c1ccc(O)c2CN1CCNCC1` [Compound A27, (Z)-6-Hydroxy-2-[(7-nitro-1H-indol-3-yl)methylene]-7-(piperazin-1-ylmethyl)benzofuran-3(2H)-one dihydrochloride], 29%.
With `CNCc1cccc2c(/C=C3\Oc4c(ccc(O)c4CN4CCNCC4)C3=O)c[nH]c12` [Compound A28, (Z)-6-Hydroxy-2-({7-[(methylamino)methyl]-1H-indol-3-yl}methylene)-7-(piperazin-1-ylmethyl)benzofuran-3(2H)-one trihydrochloride], where the note is “Table 1”, the inhibition at 0.1 µM was found to be 10%.
Still for that read-out and setting: the figure for `Cc1ccc(S(=O)(=O)n2cc(/C=C3\Oc4c(ccc(O)c4CN4CCN(C)CC4)C3=O)c3ccccc32)cc1` [Compound A31, (Z)-6-Hydroxy-7-[(4-methylpiperazin-1-yl)methyl]-2-[(1-tosyl-1H-indol-3-yl)methylene]benzofuran-3(2H)-one] is 47%.
Still for that read-out and setting: under `COc1ccc2c(c1CN1CCOCC1)O/C(=C\c1c[nH]c3ccccc13)C2=O` [Compound A41, (Z)-2-[(1H-Indol-3-yl)methylene]-6-methoxy-7-(morpholinomethyl)benzofuran-3(2H)-one] stands 40%.
Same read-out and setting: the figure for `O=C1/C(=C/c2c[nH]c3ncccc23)Oc2c1ccc(O)c2CN1CCNCC1` [Compound A42, (Z)-2-[(1H-Pyrrolo[2,3-b]pyridin-3-yl)methylene]-6-hydroxy-7-(piperazin-1-ylmethyl)benzofuran-3(2H)-one trihydrochloride] is 96%; for `CN1CCN(Cc2c(O)ccc3c2O/C(=C\c2c[nH]c4ncccc24)C3=O)CC1` [Compound A43, (Z)-2-[(1H-Pyrrolo[2,3-b]pyridin-3-yl)methylene]-6-hydroxy-7-[(4-methylpiperazin-1-yl)methyl]benzofuran-3(2H)-one] it is 56%; for `O=C1/C(=C/c2c[nH]c3nc(Cl)ccc23)Oc2c1ccc(O)c2CN1CCNCC1` [Compound A46, (Z)-2-[(6-Chloro-1H-pyrrolo[2,3-b]pyridin-3-yl)methylene]-6-hydroxy-7-(piperazin-1-ylmethyl)benzofuran-3(2H)-one trihydrochloride] it is 99%.
`O=C1/C(=C/c2c[nH]c3nc(Br)ccc23)Oc2c1ccc(O)c2CN1CCNCC1` [Compound A47, (Z)-2-[(6-Bromo-1H-pyrrolo[2,3-b]pyridin-3-yl)methylene]-6-hydroxy-7-(piperazin-1-ylmethyl)benzofuran-3(2H)-one trihydrochloride]: the inhibition at 0.1 µM (Table 1) was 98%.
With `Cc1ccc2c(/C=C3\Oc4c(ccc(O)c4CN4CCNCC4)C3=O)c[nH]c2n1` [Compound A48, (Z)-6-Hydroxy-2-[(6-methyl-1H-pyrrolo[2,3-b]pyridin-3-yl)methylene]-7-(piperazin-1-ylmethyl)benzofuran-3(2H)-one trihydrochloride], the inhibition at 0.1 µM (Table 1) was found to be 97%.
Still for that read-out and setting: under `O=C1/C(=C/c2c[nH]c3nc(-c4ccccc4)ccc23)Oc2c1ccc(O)c2CN1CCNCC1` [Compound A49, (Z)-6-Hydroxy-2-[(6-phenyl-1H-pyrrolo[2,3-b]pyridin-3-yl)methylene]-7-(piperazin-1-ylmethyl)benzofuran-3(2H)-one trihydrochloride] stands 16%; under `C#Cc1ccc2c(/C=C3\Oc4c(ccc(O)c4CN4CCNCC4)C3=O)c[nH]c2n1` [Compound A50, (Z)-2-[(6-Ethynyl-1H-pyrrolo[2,3-b]pyridin-3-yl)methylene]-6-hydroxy-7-(piperazin-1-ylmethyl)benzofuran-3(2H)-one trihydrochloride], 94%.
On the same count and under the same terms, the figure for `Cc1ccc2c(/C=C3\Oc4c(cc(Cl)c(O)c4CN4CCNCC4)C3=O)c[nH]c2n1` [Compound A51, (Z)-5-Chloro-6-hydroxy-2-[(6-methyl-1H-pyrrolo[2,3-b]pyridin-3-yl)methylene]-7-(piperazin-1-ylmethyl)benzofuran-3(2H)-one trihydrochloride] is 94%.
For the compound `O=C1/C(=C/c2c[nH]c3ncc(Br)cc23)Oc2c1ccc(O)c2CN1CCNCC1` [Compound A52, (Z)-2-[(5-Bromo-1H-pyrrolo[2,3-b]pyridin-3-yl)methylene]-6-hydroxy-7-(piperazin-1-ylmethyl)benzofuran-3(2H)-one trihydrochloride], the inhibition at 0.1 µM (Table 1) was found to be 101%.
Same read-out and setting: under `COc1ccc2c(c1CN1CCNCC1)O/C(=C\c1c[nH]c3ncccc13)C2=O` [Compound A53, (Z)-2-[(1H-Pyrrolo[2,3-b]pyridin-3-yl)methylene]-6-methoxy-7-(piperazin-1-ylmethyl)benzofuran-3(2H)-one] stands 98%.
Still for that read-out and setting: the figure for `COc1ccc2c(c1CN1CCOCC1)O/C(=C\c1c[nH]c3ncccc13)C2=O` [Compound A54, (Z)-2-[(1H-Pyrrolo[2,3-b]pyridin-3-yl)methylene]-6-methoxy-7-(morpholinomethyl)benzofuran-3(2H)-one] is 72%.
Take `O=C1/C(=C/c2n[nH]c3ccccc23)Oc2c1ccc(O)c2CN1CCNCC1` [Compound B1, (Z)-2-[(1H-Indazol-3-yl)methylene]-6-hydroxy-7-(piperazin-1-ylmethyl)benzofuran-3(2H)-one]: the inhibition at 0.1 µM (Table 2) came to 88%.
As for `C[C@@H]1CN(Cc2c(O)ccc3c2O/C(=C\c2n[nH]c4ccccc24)C3=O)C[C@H](C)N1` [Compound B2], the “Pim-1 kinase inhibitory activity (%)” value (Table 2) is on record as 61%.
Regarding `CN1CCN(Cc2c(O)ccc3c2O/C(=C\c2n[nH]c4ccccc24)C3=O)CC1` [Compound B4, (Z)-2-[(1H-Indazol-3-yl)methylene]-6-hydroxy-7-[(4-methylpiperazin-1-yl)methyl]benzofuran-3(2H)-one], the inhibition at 0.1 µM (Table 2) was 41%.
Still for that read-out and setting: under `O=C1/C(=C/c2n[nH]c3ccccc23)Oc2c1ccc(O)c2CN1CCOCC1` [Compound B5, (Z)-2-[(1H-Indazol-3-yl)methylene]-6-hydroxy-7-(morpholinomethyl)benzofuran-3(2H)-one] stands 22%; under `O=C1CN(Cc2c(O)ccc3c2O/C(=C\c2n[nH]c4ccccc24)C3=O)CCN1` [Compound B6, (Z)-4-({2-[(1H-Indazol-3-yl)methylene]-6-hydroxy-3-oxo-2,3-dihydrobenzofuran-7-yl}methyl)piperazin-2-one], 49%.

Values taken from patent US9156827B2, “Anticancer agent” (THE UNIVERSITY OF TOKYO, priority 2010, dated 2015).
